Test results as given in PMC3827197, “Antidiabetic Effects of Chamomile Flowers Extract in Obese Mice through Transcriptional Stimulation of Nutrient Sensors of the Peroxisome Proliferator-Activated Receptor (PPAR) Family” (PLoS ONE, 2013).

Key:
PPARα = molecular target: T1, PPARα (Homo sapiens, UniProt Q07869); assay: Reporter gene assay of transcriptional activation, PPARα (HEK 293, GAL4-PPAR-LBD); assay type: cell-based; settings: relative to reference compound GW7647
T1 construct: HEK 293 cells were stably expressing a GAL4-PPAR-LBD fusion protein and an UAS-beta-lactamase reporter gene; host or cells: HEK 293
T1 sequence (Q07869 239-466 limits assumed): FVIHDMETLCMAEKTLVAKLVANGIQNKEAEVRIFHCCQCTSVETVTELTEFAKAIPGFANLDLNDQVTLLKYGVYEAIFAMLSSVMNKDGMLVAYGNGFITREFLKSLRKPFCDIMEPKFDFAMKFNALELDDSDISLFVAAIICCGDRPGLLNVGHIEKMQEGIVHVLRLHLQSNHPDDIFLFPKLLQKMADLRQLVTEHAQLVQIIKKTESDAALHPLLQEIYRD
Method: Transcriptional activation of PPARs was assessed in cellular reporter gene assays according to the manufacturer’s protocols (GeneBLAzer PPAR alpha/gamma/delta Assay, Life Technologies). Briefly, HEK 293 cells were stably expressing a GAL4-PPAR-LBD fusion protein and an UAS-beta-lactamase reporter gene. Cells were incubated with different concentrations of compounds resulting in differential expression of the reporter gene. Binding and activation assays were measured with the POLARstar Omega (BMG LABTECH, Offenburg, Germany). Data were fitted using GraphPad Prism 5.0 according equation: Y=Bottom + (Top-Bottom)/(1+10^((LogEC50-X)*HillSlope)) with variable Hill slope.

[1] = system: PPARα target genes in HepG2 cells; assay: qPCR gene expression in HepG2 hepatocytes, with PPARα siRNA knockdown; settings: 300 µg/ml CFE or 10 µM GW7647, 24 h, vs vehicle
Method: Specificity of PPARα-driven modulation was investigated in siRNA-mediated knockdown in human hepatocytes and subsequent real-time PCR detection. Therefore, HepG2 cells were seeded in 24-well-plates (Nunc) at a density of 40,000 cells per well.

HFD-fed C57BL/6 mice = assay: Therapy study in insulin-resistant obese HFD-fed (DIO) mice; settings: CFE 200 mg/kg/d or RGZ 4 mg/kg/d
Method: Animal studies were approved by the State Office of Health and Social Affairs (Berlin, Germany) and were carried out according internationally approved guidelines. All animals were singly housed under temperature-, humidity- and light-controlled conditions (22°C, 50% humidity, 12 h light/12 h dark cycle). Mice had ad libitum access to food and water. Mice, food and water were weighed in a regularly to determine changes in body weight and food and water intake.
For the therapy study, we subjected male 6-week old C57BL/6 mice to an HFD for 18 weeks to induce obesity and insulin resistance. Prior to compound treatment, mice were weighed and distributed uniformly to three groups (n=9-14 each). […] After 2 weeks of treatment mice were subjected to an oral glucose tolerance test (OGTT). […]
Mice were fasted overnight before being subjected to an oral glucose (Sigma-Aldrich) dose of 2 g/kg body weight. Blood was taken from the tail vein at the indicated time points and blood glucose was analysed in a Hemocue B-Glucose analyser (Hemocue, Großostheim, Germany). […]
Whole blood glucose was analysed in a Hemocue B-Glucose analyser. Plasma glucose was measured using the Amplex Red Glucose Assay Kit (Life Technologies). Plasma triacylglycerol, NEFA, HDL and LDL/VLDL cholesterol and plasma alanine transaminase (ALT) were determined with colorimetric quantification kits (Biovision, Milpitas, CA, USA). […]

Row | SMILES | Efficacy PPARα (PPARα) | Expression of PPARα target genes (ACOX2, CPT 2, ECH1, HMGCS2) [1] | Gene expression of inflammatory markers in WAT (HFD-fed C57BL/6 mice; 6 weeks, qPCR) | HOMA-IR insulin resistance, decrease (HFD-fed C57BL/6 mice; after 2 weeks)
1 | CC(C)(Sc1ccc(CCN(CCCCC2CCCCC2)C(=O)NC2CCCCC2)cc1)C(=O)O [GW7647] | 100% | significantly induced expression | – | –
2 | CN(CCOc1ccc(CC2SC(=O)NC2=O)cc1)c1ccccn1 (stereo not shown) [RGZ, rosiglitazone] | – | – | remained largely unchanged | 67%
